Literature values in patent US11058672B2, “Pharmaceutical compositions and methods for producing low impurity concentrations of the same” (Chiesi Farmaceutici S.p.A., priority 2008, dated 2021).

solubility in water: practically insoluble
Structure (SMILES): CCCC(=O)OCOC(=O)C1=C(C)NC(C)=C(C(=O)OC)C1c1cccc(Cl)c1Cl (stereo not shown) [Clevidipine, butyroxymethyl methyl 4-(2′,3′-dichlorophenyl)-1,4-dihydro-2,6-dimethyl-3,5-pyridinedicarboxylate]
